row,Compound,melting point [°C]
1,"CC(C)n1nc(-c2sc(Nc3cccc4ccccc34)nc2-c2ccccc2)ccc1=O [Example 72, 2-Isopropyl-6-[2-(1-naphthylamino)-4-phenyl-1,3-thiazol-5-yl]-3(2H)-pyridazinone]",239 to 240
2,"CCCNc1nc(-c2ccccc2)c(-c2ccc(=O)n(C(C)C)n2)s1 [Example 73, 2-Isopropyl-6-[4-phenyl-2-(propylamino)-1,3-thiazol-5-yl]-3(2H)-pyridazinone]",165 to 166
3,"CC(C)n1nc(-c2sc(NCCN3CCCCC3)nc2-c2ccccc2)ccc1=O [Example 74, 2-Isopropyl-6-(4-phenyl-2-{[2-(1-piperidinyl)ethyl]amino}-1,3-thiazol-5-yl)-3(2H)-pyridazinone]",165 to 166
4,"CC(C)n1nc(-c2sc(NC=O)nc2-c2ccc(F)cc2)ccc1=O [Example 76, 4-(4-fluorophenyl)-5-(1-isopropyl-6-oxo-1,6-dihydro-3-pyridazinyl)-1,3-thiazol-2-ylformamide]",230 to 231
5,"CC(C)n1nc(-c2sc(N)nc2-c2ccc(F)cc2)ccc1=O [Example 77, 6-[2-amino-4-(4-fluorophenyl)-1,3-thiazol-5-yl]-2-isopropyl-3(2H)-pyridazinone]",255.5 to 257
6,"CC(C)n1nc(-c2sc(N)nc2-c2ccccc2F)ccc1=O [Example 79, 6-[2-Amino-4-(2-fluorophenyl)-1,3-thiazol-5-yl]-2-isopropyl-3(2H)-pyridazinone]",233 to 235
7,"CC(C)n1nc(-c2sc(N)nc2-c2cccc(F)c2)ccc1=O [Example 80, 6-[2-Amino-4-(3-fluorophenyl)-1,3-thiazol-5-yl]-2-isopropyl-3(2H)-pyridazinone]",237 to 238
8,"CC(C)n1nc(-c2sc(N)nc2-c2cccc(Cl)c2)ccc1=O [Example 81, 6-[2-Amino-4-(3-chlorophenyl)-1,3-thiazol-5-yl]-2-isopropyl-3(2H)-pyridazinone]",235.5 to 237
9,"CC(=O)Nc1nc(-c2ccc(F)cc2)c(-c2ccc(=O)n(C(C)C)n2)s1 [Example 82, N-[4-(4-fluorophenyl)-5-(1-isopropyl-6-oxo-1,6-dihydro-3-pyridazinyl)-1,3-thiazol-2-yl]acetamide]",236 to 237.5
10,"CC(C)n1nc(-c2sc(NC(=O)c3ccccc3)nc2-c2ccc(F)cc2)ccc1=O [Example 83, N-[4-(4-Fluorophenyl)-5-(1-isopropyl-6-oxo-1,6-dihydro-3-pyridazinyl)-1,3-thiazol-2-yl]-benzamide]",202 to 203.5
11,"Nc1nc(-c2ccccc2)c(-c2ccc(=O)[nH]n2)s1 [Example 84, 6-(2-amino-4-phenyl-1,3-thiazol-5-yl)-3(2H)-pyridazinone]",> 250
12,"Cn1nc(-c2sc(N)nc2-c2ccccc2)ccc1=O [Example 85, 6-(2-amino-4-phenyl-1,3-thiazol-5-yl)-2-methyl-3(2H)-pyridazinone]",238 to 241
13,"CCCn1nc(-c2sc(N)nc2-c2ccccc2)ccc1=O [Example 86, 6-(2-Amino-4-phenyl-1,3-thiazol-5-yl)-2-propyl-3(2H)-pyridazinone]",224 to 226
14,"COCCn1nc(-c2sc(N)nc2-c2ccccc2)ccc1=O [Example 87, 6-(2-Amino-4-phenyl-1,3-thiazol-5-yl)-2-(2-methoxyethyl)-3(2H)-pyridazinone]",208 to 209.5
15,"Nc1nc(-c2ccccc2)c(-c2ccc(=O)n(CC3CC3)n2)s1 [Example 88, 6-(2-Amino-4-phenyl-1,3-thiazol-5-yl)-2-(cyclopropylmethyl)-3(2H)-pyridazinone]",204 to 206
16,"COC(=O)Cn1nc(-c2sc(N)nc2-c2ccccc2)ccc1=O [Example 89, Methyl [3-(2-amino-4-phenyl-1,3-thiazol-5-yl)-6-oxo-1 (6H)-pyridazinyl]acetate]",190 to 193
17,"CC(=O)Cn1nc(-c2sc(N)nc2-c2ccccc2)ccc1=O [Example 90, 6-(2-Amino-4-phenyl-1,3-thiazol-5-yl)-2-(2-oxopropyl)-3(2H)-pyridazinone]",216 to 219
